Results: patent US5858684A, “Method of screening calcium receptor-active molecules” (priority 1995, dated 1999)
Entries after “also recorded” stand apart in the source; their conditions may differ. Where two headings read alike, the source gives them in different places. Each block holds one compound with its values, some of them ahead of it.

Assays:
[1] = test system: osteoclast calcium receptor; experiment: increase in [Ca2+]i in indo-1-loaded rat osteoclasts; format: cell-based
[2] = test system: increases in [Ca2+]i elicited by extracellular Ca2+ in bovine parathyroid cells; experiment: block of extracellular Ca2+-induced [Ca2+]i increase / Ca2+ influx in bovine parathyroid cells; format: cell-based; conditions: 30 μM
[3] = test system: PTH secretion from human parathyroid cells; experiment: PTH secretion from human parathyroid cells; format: cell-based; conditions: human (adenoma) parathyroid cells
Protocol: PTH secretion was measured by first suspending cells in PCB containing 0.5 mM CaCl2 and 0.1% BSA.
For human cells, a commercially available radioimmunoassay kit (INS-PTH; Nichols Institute, Los Angeles, Calif.) which recognizes intact and N-terminal human PTH was used because GW-1 antibody recognizes human PTH poorly.

[4] = test system: cyclic AMP formation in bovine parathyroid cells; format: cell-based
[5] = target: T1, calcium receptor expressed from bovine parathyroid cell mRNA in Xenopus oocytes (Bos taurus, UniProt P35384); experiment: Cl- current in Xenopus oocytes injected with bovine parathyroid mRNA; format: cell-based; conditions: 30 μM
T1 sequence (P35384 20-1085): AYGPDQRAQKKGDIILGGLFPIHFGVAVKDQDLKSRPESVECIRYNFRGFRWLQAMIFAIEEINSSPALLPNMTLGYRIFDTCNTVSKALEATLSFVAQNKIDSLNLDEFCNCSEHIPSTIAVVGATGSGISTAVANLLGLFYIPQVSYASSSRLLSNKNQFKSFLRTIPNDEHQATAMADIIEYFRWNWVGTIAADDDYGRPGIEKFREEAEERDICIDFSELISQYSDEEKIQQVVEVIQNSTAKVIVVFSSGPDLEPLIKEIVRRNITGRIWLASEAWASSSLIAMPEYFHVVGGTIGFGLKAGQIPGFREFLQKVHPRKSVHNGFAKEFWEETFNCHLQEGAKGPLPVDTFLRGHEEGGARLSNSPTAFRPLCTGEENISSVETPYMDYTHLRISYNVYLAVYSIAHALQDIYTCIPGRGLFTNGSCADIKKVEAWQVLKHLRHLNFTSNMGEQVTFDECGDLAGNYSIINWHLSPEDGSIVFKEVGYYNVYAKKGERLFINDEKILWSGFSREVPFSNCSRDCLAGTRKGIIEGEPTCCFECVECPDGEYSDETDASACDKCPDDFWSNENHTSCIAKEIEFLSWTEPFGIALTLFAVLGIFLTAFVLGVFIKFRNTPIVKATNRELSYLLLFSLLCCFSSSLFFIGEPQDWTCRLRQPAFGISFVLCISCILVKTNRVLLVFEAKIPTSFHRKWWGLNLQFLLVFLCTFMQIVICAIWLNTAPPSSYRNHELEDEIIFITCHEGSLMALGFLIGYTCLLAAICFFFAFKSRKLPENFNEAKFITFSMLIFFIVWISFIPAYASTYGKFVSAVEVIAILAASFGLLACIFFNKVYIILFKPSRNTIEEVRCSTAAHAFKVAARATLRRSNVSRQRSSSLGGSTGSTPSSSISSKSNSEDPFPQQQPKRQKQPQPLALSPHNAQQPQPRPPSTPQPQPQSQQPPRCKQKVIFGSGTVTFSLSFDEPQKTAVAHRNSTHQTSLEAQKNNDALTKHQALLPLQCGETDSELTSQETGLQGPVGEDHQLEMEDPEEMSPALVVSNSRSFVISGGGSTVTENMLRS
Protocol: Glass capillary tubes (1 mm diameter) were pulled to a fine tip and manually broken to achieve a tip diameter of about 15 μmeters. A droplet of mRNA (1 ng/nl in diethylpyrocarbonate (DEPC)-treated water) was placed onto […]® and drawn into the capillary tube by suction. The capillary tube was then connected to a picospritzer (WPI Instruments) and the volume of the air-pulsed droplets adjusted to deliver 50 ng of mRNA (typically 50 nl). A 35-mm culture dish with a patch of nylon stocking fixed to the bottom was used to secure the oocytes during injection of mRNA into the vegetal pole. The injected oocytes were placed into a 35-mm culture dish containing MBS, 100 μg/ml penicillin and 100 μg/ml streptomycin and incubated at 18° C. for 3 days.
Following incubation, an oocyte was placed into a 100-μl plastic chamber and superfused with MBS at a flow rate of 0.5 ml/min using a peristaltic pump. Test molecules or inorganic polycations were added by rapidly moving the tubing into different buffers. Recording and current-passing electrodes were constructed from thin-wall capillary tubing pulled to a resistance of 1-3 Mohms and filled with 3M KCl. […] Currents were recorded directly onto a strip chart recorder.

[6] = circulating PTH in rats; format: in vivo, rat
[7] = serum calcitonin in a human; format: in vivo; conditions: single oral doses 20-400 mg
Description: A range of single oral doses was used to assess safety, tolerance, and changes in primary hyperparathyroidism markers (e.g., plasma concentrations of parathyroid hormone and ionized serum calcium) and of serum calcitonin.

[8] = hypocalcemic response in nephrectomized rats; format: in vivo, rat; conditions: oral
Description: The decreases in serum levels of PTH together with. the resulting hypocalcemia are desirable therapeutic effects in cases of hyperparathyroidism.

[9] = plasma calcitonin in rats; format: in vivo, rat; conditions: p.o.

Structure (SMILES): NC[C@@H]1O[C@H](O[C@H]2[C@@H](O)[C@H](O[C@@H]3[C@@H](O)[C@H](N)C[C@H](N)[C@H]3O[C@H]3O[C@H](CN)[C@@H](O)[C@H](O)[C@H]3N)O[C@@H]2CO)[C@H](N)[C@@H](O)[C@@H]1O [Neomycin]
block of [Ca2+]i response to 25 mM extracellular Ca2+ [1]: did not block the increase
increase in [Ca2+]i in osteoclasts [1]: failed to evoke any increase
increase in [Ca2+]i in osteoclasts, overall [1]: none of these caused any large increase
increase in [Ca2+]i in rat osteoclasts [1]: Neither
effect on basal [Ca2+]i and on extracellular Ca2+-elicited increase ([1]; 5 mM): without effect on basal
increase in [Ca2+]i in osteoclasts, overall ([1]; listed as neomycin B): fail to evoke increases
effect on [Ca2+]i increases elicited by extracellular Ca2+ [2]: blocks transient, but does not block steady-state increases
inhibition of PTH secretion ([3]; listed as Neomycin B): inhibited PTH secretion
inhibition of PTH secretion ([3]; listed as neomycin B): inhibit PTH secretion
isoproterenol-induced cyclic AMP [4]: depressed isoproterenol-induced increases

Cl- current [5]: rapid increase in Cl^-
Structure (SMILES): COc1cccc([C@@H](C)NCCCc2ccccc2)c1 (single isomer, unassigned) [NPS R-467]

Structure (SMILES): COc1cccc([C@@H](C)NCCCc2ccccc2Cl)c1 [NPS R-568, (R)-(+)-N-[3-(2-chlorophenyl)propyl]-amethyl-α-3-methoxybenzylamine]
circulating levels of PTH [6]: decreases in the levels of serum PTH; also recorded: rapid, dose-dependent decrease
serum calcitonin in human [7]: no apparent change in serum calcitonin
hypocalcemic response after complete nephrectomy [8]: only marginally affected
plasma calcitonin [9]: an increase in calcitonin
